Data on six molecules can be found in US11708393B2, “Targeted non-invasive imaging probes of EGFR expressing cells” (priority 2011, dated 2023).

“Also recorded” adds a separate entry of the source. Cy5.5 = cyanine fluorochrome label, coupled as NHS ester; AEEA = NCCOCCOCC(=O)O

In experiment [1] the test system is Gli36Δ5 orthotopic brain tumors overexpressing EGFR. As to the kind of experiment: Ex vivo fluorescence imaging of brains with orthotopic Gli36Δ5 tumors. The format is in vivo, mice. The settings on record: for accumulation in tumor, % of injected dose: 1 nmol/g tail vein, 1 hour, brains imaged ex vivo; for tumor targeting (in words): 1 nmol/g, ex vivo analysis of brain tissues. Here is the method:
NIH athymic nude female mice (5-8 weeks and 20-25 g upon arrival, NCI-NIH) were maintained at the Animal Resource Center at Case Western Reserve University (Cleveland, Ohio) according to institutional policies. Cell for brain implantation were harvested with 1 mL 0.05% trypsin-EDTA (Gibco) and briefly washed with PBS. Trypsin was inactivated by the addition of serum-containing media. The resulting cell suspension was centrifuged at […] for 3 minutes. The cell suspension was centrifuged and the supernatant was removed after 2 washes in PBS. Finally, the cells were resuspended in […] PBS for brain implants per animal (250,000 cells per animal for brain implants). Immediately following the cell harvesting procedure, animals were inoculated. For brain tumor implantation, mice were anesthetized by intraperitoneal (i.p.) injection of 50 mg/kg ketamine/xylazine and fitted into a stereotaxic rodent frame (David Kopf Instruments). A small incision was made just lateral to midline to expose bregma suture. A small (1.0 mm) burr hole was drilled at anterior (AP)=+1, lateral (ML)=−2.5 from the bregma. Glioblastoma cells were slowly deposited at a rate of 1 μL/min in the right striatum at a depth of 3 mm from dura with a 10-μL syringe (23-G needle). The needle was slowly withdrawn and the incision was closed with 2 to 3 sutures. Brain tumors grew for 10 to 12 days as per IACUC protocols at which point in vivo imaging studies were conducted. As control for the effects of surgical intervention, animals were also subjected to the implantation procedure but Optical Imaging of Tumors with EGFR Overexpression received 2 μL PBS (sham animals). Animals were fed exclusively on a special rodent diet (Harlan Laboratories, Inc.; Tekland 2018S) to reduce autofluorescence.
Mice bearing brain tumors derived from Gli36Δ5 or U87-MG cells were administered with compounds at 1 nmol/g via tail vein injection. In vivo competition assays were done with mixture of compound 2 and 10-fold concentration of nonlabeled probe 5. Before injection, mice were anesthetized with isoflurane and subjected to tomographic and spectral fluorescence imaging. One hour after injection, animals were re-imaged. Brains were then extracted and imaged. The excised brains were embedded in Tissue-Tek optimum cutting temperature for cryosections for immunohistochemistry (IHC). Fluorescence-mediated molecular tomography (FMT) images were obtained using FMT2500 (Perkin-Elmer), and 3-dimensional reconstructions of fluorescent signals were acquired using the accompanying software TrueQuant. Quantitative fluorescent signals for Cy5.5 of compound 2 were calibrated as per manufacturer's instructions using the 680-channel. Region of interest (ROI) assigned on the basis of the precise placement of cells during implantation at 3 to 4 mm into the brain. ROI was corroborated with fluorescent signals from ex vivo imaging. Fluorescent multispectral images were obtained using the Maestro In-Vivo Imaging System (CRi, Inc.). […] Fluorescence images were acquired before treatment, immediately after and 1.5 hours after treatment. To compare signal intensities, ROIs were selected over the tumor or nontumor areas, and the change in fluorescence signal over baseline was determined. […] The total signal in the ROI defined in photons measured at the surface of the animal was divided by the area (in pixels). Spectral libraries were generated by assigning spectral peaks to background and fluorescence probe on tissue. […]

Another experiment deals with T1, EGFR (Homo sapiens, UniProt P00533).
T1 construct: endogenous in cells; host or cells: Gli36Δ5 human glioblastoma cells
Kind of experiment: Saturation binding assay of Cy5.5-labeled peptides on Gli36Δ5 cells. The settings on record: for Kd: 37° C., 90 minutes, read-out: apparent binding affinity Kd from saturation binding assay. Here is the method: To determine binding affinities of the Cy5.5-labeled peptides 1 to 4 to EGFR, a saturation binding assay protocol using labeled fluorescence ligand against cell surface receptors was adapted as previously reported. Briefly, Gli36Δ5 cells were plated 20,000 cells per well were plated on black Costar 96-well plates (cat. no. 3603). Probes were diluted to range of concentration ([…]) in growing media with 0.3% bovine serum albumin (BSA) and added into wells and incubated at 37° C. for 90 minutes at 5% CO2. Cells were then washed with PBS twice and dried. DMSO was added before reading fluorescence (excitation 670 nm, emission 700 nm) with a Tecan Infinite M200 plate reader. Saturation binding assay data were in quadruplicates and analyzed using one site binding classical equation for nonlinear regression analysis with the GraphPad Prism version 4.0.
Binding affinity was determined with nonlinear regression analysis with one site binding hyperbola with an equation: […], where Bmax is the maximal binding site and the Kd is the concentration required to reach half-maximal binding. ANOVA analysis at 95% confidence interval (CI) was used to compare treatments (*, […]; confidence interval, ***, […]). To compare live animal FMT, nonparametric one-way ANOVA analyses (Kruskal-Wallis tests) and the median differences were considered significant with P=0.0220.

The subject of the next experiment is Gli36Δ5 cells. As to the kind of experiment: Receptor uptake, cell-associated fluorescence in Gli36Δ5 cells. The format is cell-based, human. The settings on record: 1 μmol/L compound. The protocol: FIG. 2 illustrates a plot showing cell associated fluorescence measured using spectrofluorometry at the indicated times for Gli36Δ5 cells incubated with 1 μmol/L of compounds 1 to 4 [Cy5.5-(AEEA)n-EGFpep].
FIGS. 3(A-B) illustrate images showing Gli36Δ5 (A) and U87-MG (B) cells incubated with 1 μmol/L compounds for the indicated times. Uptake of the compounds was assessed using epifluorescence microscopy. Images were taken at ×40 magnification. Scale bar, 50 μm.
Gli36Δ5 or U87-MG cell lines plated in 96-well culture plates (20,000 cells per well; 3 wells per condition) were incubated over indicated time periods with […] of Cy5.5-labeled EGF peptides 2, 3, and 4 at 37° C. and 5% CO2. Cells were briefly rinsed with HEPES buffer and imaged with a Tecan Infinite M200 fluorescence plate reader (excitation 670 nm, emission 700 nm).

The test system of experiment [2] is Gli36Δ5 orthotopic brain tumors. Kind of experiment: In vivo FMT imaging of orthotopic Gli36Δ5 brain tumors. Set-up: species or system mice. Here is the method: (§1) NIH athymic nude female mice (5-8 weeks and 20-25 g upon arrival, NCI-NIH) were maintained at the Animal Resource Center at Case Western Reserve University (Cleveland, Ohio) according to institutional policies. Cell for brain implantation were harvested with 1 mL 0.05% trypsin-EDTA (Gibco) and briefly washed with PBS. Trypsin was inactivated by the addition of serum-containing media. The resulting cell suspension was centrifuged at […] for 3 minutes. The cell suspension was centrifuged and the supernatant was removed after 2 washes in PBS. Finally, the cells were resuspended in […] PBS for brain implants per animal (250,000 cells per animal for brain implants). […]
(§2) Mice bearing brain tumors derived from Gli36Δ5 or U87-MG cells were administered with compounds at 1 nmol/g via tail vein injection. […] Before injection, mice were anesthetized with isoflurane and subjected to tomographic and spectral fluorescence imaging. […] Fluorescence-mediated molecular tomography (FMT) images were obtained using FMT2500 (Perkin-Elmer), and 3-dimensional reconstructions of fluorescent signals were acquired using the accompanying software TrueQuant. Quantitative fluorescent signals for Cy5.5 of compound 2 were calibrated as per manufacturer's instructions using the 680-channel. […] Fluorescence images were acquired before treatment, immediately after and 1.5 hours after treatment. […]

Experiment [3] deals with U87-MG orthotopic brain tumors. As to the kind of experiment: In vivo FMT imaging of orthotopic U87-MG brain tumors. Further details: species or system mice. The protocol: as §1, §2
A short description of experiment [4]: In vivo FMT imaging of sham surgery animals. Further details: species or system mice. The protocol:
as §1, §2

Experiment [5] has as its system A431 cells (high wild-type EGFR). As to the kind of experiment: Saturation binding and fluorescence uptake in A431 cells. The settings on record: A431 cells incubated with compound plus EGF ligand. Type of experiment: cell-based, human. An excerpt: We also examined the expression of EGFRvIII in the cell lines. […] In addition, we examined A431 cells, a squamous carcinoma cell line, that expresses high levels of wild-type EGFR.

In experiment [6] the target is human epidermal growth factor receptor (EGFR) (human) (UniProt P00533). Kind of experiment: cell-based or functional assay.

Consider “Cy5.5-(AEEA)1-NYQTPVYGWIYH-amide ({Cy5.5-AEEA}-NYQTPVYGWIYH-NH2) [Compound 6, Cy5.5-labeled scrambled peptide, specificity control, reference compound]”, for which, in experiment [1], the “accumulation in tumor, % of injected dose” value is 0.006 % of injected dose and the “tumor targeting (in words)” value is “did not target the tumor”.
As to “Cy5.5-(AEEA)1-YHWYGYTPQNVI-amide [Compound 2]”, the “binding affinity to the cells (in words)” value with EGFR was “micromolar range”. Also, the Kd with EGFR was 8.9 µM. Further, the “cellular uptake / accumulation of fluorescence (in words)” value (“cellular uptake / accumulation” below) in the experiment on Gli36Δ5 cells is “greatest accumulation of fluorescence”. Moreover, the “accumulation in tumor, % of injected dose” value in experiment [1] was 1.1 % of injected dose. The “tumor targeting (in words)” value is “targeted the tumor efficiently” in experiment [1] and “targets the tumor significantly (***, P>0.0001) more efficiently than the scrambled peptide 6” in experiment [1] (listed as compound 2). Besides, the “fluorescence signal as injected dose” value in experiment [2] (Gli36Δ5 brain tumors, 1 nmol/g, 1 hour, FMT) is listed as 1.1%; in experiment [3] (U87-MG brain tumors, 1 nmol/g, 1 hour, FMT) it was 0.27%. Moreover, the “amount of fluorescence in matching ROI (FMT 3-dimensional reconstruction)” value in experiment [2] (Gli36Δ5 tumor) is reported as 9,271 nmol/L; in experiment [3] (U87-MG tumor) it was 1,608 nmol/L; in experiment [4], 272 nmol/L. The “cell fluorescence in the presence of EGF ligand (in words)” value in experiment [5] was “increasing fluorescence in the presence of the EGF ligand”.
Take “Cy5.5-(AEEA)2-YHWYGYTPQNVI-amide [Compound 3]”: in the experiment with EGFR, the “binding affinity to the cells (in words)” value was “micromolar range” and the Kd was determined as 64.4 µM. In the experiment with Gli36Δ5 cells, the “cellular uptake / accumulation” value was “Neither compound 1 (no linker) nor either of the molecules with greater linker numbers (compounds 3 and 4) was taken up by the cells to the same extent as compound 2”.
Consider “Cy5.5-(AEEA)3-YHWYGYTPQNVI-amide [Compound 4]”, for which, in the experiment with EGFR, the “binding affinity to the cells (in words)” value is recorded as “micromolar range” and the Kd stood at 123 µM. Moreover, in the experiment with Gli36Δ5 cells, the “cellular uptake / accumulation” value was “Neither compound 1 (no linker) nor either of the molecules with greater linker numbers (compounds 3 and 4) was taken up by the cells to the same extent as compound 2; also recorded: taken up by cells better than compound 3”.
Consider Cy5.5-YHWYGYTPQNVI-amide [Compound 1], for which, in the experiment with EGFR, the “binding affinity to the cells (in words)” value is recorded as “micromolar range” and the Kd worked out at 18.5 µM. Also, the “cellular uptake / accumulation” value with Gli36Δ5 cells is “Neither compound 1 (no linker) nor either of the molecules with greater linker numbers (compounds 3 and 4) was taken up by the cells to the same extent as compound 2”.
As to NYQTPVYGWIYH (Cy5.5-(AEEA)1 at the N-terminus; C-terminal amide) [Compound 6: Cy5.5-(AEEA)1-…-amide scrambled], in experiment [6], the percent of injected dose delivered to Gli36Δ5 brain tumor (% of injected dose) amounted to 0.006.
